We go through 31 molecules from US10155769B2, “Fused azaheterocyclic compounds and their use as AMPA receptor modulators” (Janssen Pharmaceutica NV, priority 2016, dated 2018).

The structures appear in SMILES notation.

GluA1o-γ8, sequence (P42261 other isoform, or with tags, fused parts or gaps): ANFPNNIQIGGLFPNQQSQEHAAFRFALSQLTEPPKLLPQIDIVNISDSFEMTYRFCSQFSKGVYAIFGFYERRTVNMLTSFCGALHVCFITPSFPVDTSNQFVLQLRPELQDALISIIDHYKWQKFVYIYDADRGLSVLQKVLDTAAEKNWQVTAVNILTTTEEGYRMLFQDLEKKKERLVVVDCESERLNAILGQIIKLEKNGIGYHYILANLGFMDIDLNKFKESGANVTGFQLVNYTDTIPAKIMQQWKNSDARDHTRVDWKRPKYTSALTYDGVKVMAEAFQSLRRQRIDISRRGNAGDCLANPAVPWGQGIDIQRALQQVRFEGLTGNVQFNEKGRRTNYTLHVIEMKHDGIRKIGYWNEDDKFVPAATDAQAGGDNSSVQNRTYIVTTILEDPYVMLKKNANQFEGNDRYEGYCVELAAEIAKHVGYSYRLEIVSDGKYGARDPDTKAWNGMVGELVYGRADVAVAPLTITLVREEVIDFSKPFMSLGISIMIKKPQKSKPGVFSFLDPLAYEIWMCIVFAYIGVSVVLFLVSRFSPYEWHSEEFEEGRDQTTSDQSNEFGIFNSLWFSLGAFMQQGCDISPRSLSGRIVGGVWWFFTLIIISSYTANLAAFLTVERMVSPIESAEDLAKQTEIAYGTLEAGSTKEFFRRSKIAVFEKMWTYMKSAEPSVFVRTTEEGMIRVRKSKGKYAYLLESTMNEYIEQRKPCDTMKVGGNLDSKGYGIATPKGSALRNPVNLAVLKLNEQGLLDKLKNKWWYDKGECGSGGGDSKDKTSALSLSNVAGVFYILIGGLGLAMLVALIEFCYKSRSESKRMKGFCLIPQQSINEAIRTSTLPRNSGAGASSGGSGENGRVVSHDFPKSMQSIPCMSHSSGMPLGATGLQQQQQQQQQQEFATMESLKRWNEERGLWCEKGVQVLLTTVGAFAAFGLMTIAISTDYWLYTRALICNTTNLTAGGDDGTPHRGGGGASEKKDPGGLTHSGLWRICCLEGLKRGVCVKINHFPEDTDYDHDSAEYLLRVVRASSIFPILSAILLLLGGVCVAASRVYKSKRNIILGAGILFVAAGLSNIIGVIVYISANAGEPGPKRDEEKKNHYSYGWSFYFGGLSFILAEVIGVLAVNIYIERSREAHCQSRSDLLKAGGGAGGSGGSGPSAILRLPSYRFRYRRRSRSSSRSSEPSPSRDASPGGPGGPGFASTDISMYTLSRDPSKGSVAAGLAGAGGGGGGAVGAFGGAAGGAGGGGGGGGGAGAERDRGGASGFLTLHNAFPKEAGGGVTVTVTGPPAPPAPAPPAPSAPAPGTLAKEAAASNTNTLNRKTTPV

The target in the experiment is GluA1o-γ8 (Homo sapiens (Human), UniProt P42261+Q8WXS5). The experiment can be described thus: Calcium flux assay (FLIPR), inhibition of TARP γ8 dependent AMPA receptor activity. The experiment is classed as cell-based. The conditions noted are these: HEK293 cells stably expressing GRIA1o-CACNG8 fusion construct; calcium flux following 15 μM glutamate; negative log of IC50 in molar. An excerpt:
This assay was used to test compounds for their ability to inhibit TARP γ8 dependent AMPA receptor activity. The AMPA receptor is a non-selective cation channel activated by glutamate. Ionotropic glutamate receptors normally desensitize too rapidly to allow detectable calcium influx in a FLIPR assay (Strange et al. (2006). “Functional characterisation of homomeric ionotropic glutamate receptors GluR1-GluR6 in a fluorescence-based high throughput screening assay.” Comb Chem High Throughput Screen 9(2): 147-158). But, this desensitization is incomplete, and a substantial steady-state current remains in the sustained presence of glutamate (Cho et al. (2007). “Two families of TARP isoforms that have distinct effects on the kinetic properties of AMPA receptors and synaptic currents.” Neuron 55(6): 890-904).
An in vitro assay was used to determine the potency of test compounds as inhibitors of the glutamate response of the channel formed by GluA1o-γ8. To ensure a 1:1 stoichiometry of GluA1o and γ8 subunits in the expressed channel, a fusion of the cDNAs for GRIA1o and CACNG8 was used. Following Shi et al (2009) “The stoichiometry of AMPA receptors and TARPs varies by neuronal cell type.” Neuron 62(5): 633-640), the C-terminus of the cDNA for GRIA1o was fused to the N-terminus of the cDNA for γ8. The linker sequence was QQQQQQQQQQEFAT. Channels expressed with this construct appear to have similar properties to channels formed by co-expression of GRIA1o with an excess of CACNG8 (Shi et al. 2009). A clonal cell line in HEK293 cells stably expressing this construct, with a geneticin selection marker, was generated for use in this assay.
Cell expressing the GRIA1o-CACNG8 fusion construct were grown in a monolayer in 96- or 384-well microtiter plates. They were washed with assay buffer (135 mM NaCl, 4 mM KCl, 3 mM CaCl2, 1 mM MgCl2, 5 mM glucose, 10 mM HEPES, pH 7.4, 300 mOs) using a Biotek EL405 plate washer. The cells were then loaded with a calcium-sensitive dye (Calcium-5 or Calcium-6, Molecular Devices) and the test compounds at a range of concentrations. Calcium flux following the addition of 15 μM glutamate was monitored using a Molecular Devices FLIPR Tetra.
The fluorescence in each well was normalized to the fluorescence of negative and positive control wells. The negative control wells had no added compounds, and the positive control wells had been incubated with 10 μM CP465022 (a non-subtype-selective AMPA receptor antagonist) (Lazzaro et al. (2002). “Functional characterization of CP-465,022, a selective, noncompetitive AMPA receptor antagonist.” Neuropharmacology 42(2): 143-153). The responses to glutamate as functions of the test compound concentrations were fitted to a four-parameter logistic function. The fitted parameter corresponding to the midpoint was taken to be the potency of inhibition of the compound. The data in Table 4 below illustrates the observed potency for the compounds described herein. pIC50 refers to the negative log of the IC50 in molar.
In general terms: Calcium assays in cells follow changes in intracellular calcium, usually with a dye or a luminescent sensor.
`Cc1nc(C2CC2)c(-c2cc(Cl)c3[nH]ncc3c2)c2nc(C(F)(F)F)cn12` [Example 79]: the pIC50 – broadly, the IC50 on a negative log10 scale, so that one unit is a factor of ten – is listed as 8.9.

For `Cc1cc(-c2c(C(F)F)ccn3nc(C(F)(F)F)nc23)cc2c1NC(=O)C2` [Example 26, 7-Methyl-5-(7-(difluoromethyl)-2-(trifluoromethyl)-[1,2,4]triazolo[1,5-a]pyridin-8-yl)indolin-2-one], the pIC50 was determined as 9.0.

On to `Cc1cn2ccc(C(F)(F)F)c(-c3cc(C)c4[nH]ncc4c3)c2n1` [Example 94, 2-Methyl-8-(7-methyl-1H-indazol-5-yl)-7-(trifluoromethyl)imidazo[1,2-a]pyridine], for which the pIC50 is on record as 8.1.

Regarding `Cc1cc(-c2c(C3CCCC3)ccn3nc(C(F)(F)F)nc23)cc2cn[nH]c12` [Example 6, 7-Cyclopentyl-8-(7-methyl-1H-indazol-5-yl)-2-(trifluoromethyl)-[1,2,4]triazolo[1,5-a]pyridine], the pIC50 was found to be 10.1.

Regarding `CC(C)c1nc2c(-c3cc(Cl)c4[nH]ncc4c3)c(C(F)(F)F)ccn2n1` [Example 37, 8-(7-Chloro-1H-indazol-5-yl)-2-isopropyl-7-(trifluoromethyl)-[1,2,4]triazolo[1,5-a]pyridine], the negative logarithm of the IC50 (pIC50) was determined as 9.9.

Turning to `Cc1cc(-c2c(C(F)(F)F)ccn3nc(C(C)C)nc23)cc2c1NC(=O)C2` [Example 39, 5-[2-Isopropyl-7-(trifluoromethyl)-[1,2,4]triazolo[1,5-a]pyridin-8-yl]-7-methyl-indolin-2-one], the pIC50 was 9.2.

Consider `FC(F)c1ccn2nc(C(F)(F)F)nc2c1-c1cc(Cl)c2[nH]ncc2c1` [Example 23, 8-(7-Chloro-1H-indazol-5-yl)-7-(difluoromethyl)-2-(trifluoromethyl)-[1,2,4]triazolo[1,5-a]pyridine], for which the pIC50 was 9.4.

For the molecule `COc1ccn2cc(C(F)(F)F)nc2c1-c1cc(C)c2c(c1)CC(=O)N2` [Example 58, 5-[7-Methoxy-2-(trifluoromethyl)imidazo[1,2-a]pyridin-8-yl]-7-methyl-indolin-2-one], the pIC50 was determined as 7.8.

Turning to `COc1ccn2nc(C(F)(F)F)nc2c1-c1cc(C)c2[nH]ncc2c1` [Example 29, 7-Methoxy-8-(7-methyl-1H-indazol-5-yl)-2-(trifluoromethyl)-[1,2,4]triazolo[1,5-a]pyridine], the pIC50 is listed as 7.6.

Consider `Cc1ccn2cc(C(C)(C)C)nc2c1-c1cc(C)c2[nH]ncc2c1` [Example 53, 2-tert-Butyl-7-methyl-8-(7-methyl-1H-indazol-5-yl)imidazo[1,2-a]pyridine], for which the pIC50 is on record as 7.5.

On to `Cc1ccn2cc(C(F)(F)F)nc2c1-c1cc(F)c2c(c1)CC(=O)N2` [Example 51, 7-Fluoro-5-[7-methyl-2-(trifluoromethyl)imidazo[1,2-a]pyridin-8-yl]indolin-2-one], for which the pIC50 is listed as 7.2.

Turning to `CCc1cn2ccc(C(F)(F)F)c(-c3cc(C)c4[nH]ncc4c3)c2n1` [Example 92, 2-Ethyl-8-(7-methyl-1H-indazol-5-yl)-7-(trifluoromethyl)imidazo[1,2-a]pyridine], the pIC50 was 9.4.

Turning to `CCc1nc2c(-c3cc(Cl)c4[nH]ncc4c3)c(C(F)(F)F)ccn2n1` [Example 34, 8-(7-Chloro-1H-indazol-5-yl)-2-ethyl-7-(trifluoromethyl)-[1,2,4]triazolo[1,5-a]pyridine], the pIC50 is 9.4.

On to `Cc1cc(-c2c(C(F)(F)F)ccn3nc(C(F)(F)F)nc23)cc2cn[nH]c12` [Example 20, 8-(7-Methyl-1H-indazol-5-yl)-2,7-bis(trifluoromethyl)-[1,2,4]triazolo[1,5-a]pyridine], for which the pIC50 amounted to 9.3.

Take `CCc1ccn2nc(C(F)(F)F)nc2c1-c1cc(C)c2[nH]ncc2c1` [Example 28, 7-Ethyl-8-(7-methyl-1H-indazol-5-yl)-2-(trifluoromethyl)-[1,2,4]triazolo[1,5-a]pyridine]: the pIC50 is given as 9.1.

Turning to `Fc1ccc(-c2ccn3nc(C(F)(F)F)nc3c2-c2cc(F)c3[nH]ncc3c2)cc1` [Example 42, 7-(4-Fluorophenyl)-8-(7-fluoro-1H-indazol-5-yl)-2-(trifluoromethyl)-[1,2,4]triazolo[1,5-a]pyridine], the pIC50 is listed as 9.0.

For `Cc1ccn2cc(C(F)(F)F)nc2c1-c1ccc2[nH]ncc2c1` [Example 50, 8-(1H-Indazol-5-yl)-7-methyl-2-(trifluoromethyl)imidazo[1,2-a]pyridine], the pIC50 is on record as 7.2.

In the case of `CC(C)c1ncn2cc(C(F)F)nc2c1-c1cc(Cl)c2[nH]ncc2c1` [Example 72, 8-(7-Chloro-1H-indazol-5-yl)-2-(difluoromethyl)-7-isopropyl-imidazo[1,2-c]pyrimidine], the pIC50 was 9.5.

Turning to `Fc1ccc(-c2ccn3nc(C(F)(F)F)nc3c2-c2cc(Cl)c3[nH]ncc3c2)cc1` [Example 43, 7-(4-Fluorophenyl)-8-(7-chloro-1H-indazol-5-yl)-2-(trifluoromethyl)-[1,2,4]triazolo[1,5-a]pyridine], the pIC50 was determined as 11.0.

Regarding `Cc1ncn2cc(C(F)(F)F)nc2c1-c1cc(Cl)c2[nH]ncc2c1` [Example 76, 8-(7-Chloro-1H-indazol-5-yl)-7-methyl-2-(trifluoromethyl)imidazo[1,2-c]pyrimidine], the pIC50 worked out at 8.5.

Turning to `Cc1cc(-c2c(C(F)(F)F)ccn3nc(C4CC4)nc23)cc2cn[nH]c12` [Example 31, 2-Cyclopropyl-8-(7-methyl-1H-indazol-5-yl)-7-(trifluoromethyl)-[1,2,4]triazolo[1,5-a]pyridine], the pIC50 is 9.7.

Take `Cc1nc2c(-c3cc(Cl)c4[nH]ncc4c3)c(C(F)(F)F)ccn2n1` [Example 32, 8-(7-Chloro-1H-indazol-5-yl)-2-methyl-7-(trifluoromethyl)-[1,2,4]triazolo[1,5-a]pyridine]: the pIC50 amounted to 8.3.

In the case of `FC(F)(F)c1cn2ccc(C(F)(F)F)c(-c3ccc4[nH]ncc4c3)c2n1` [Example 61, 5-(2,7-Bis(trifluoromethyl)imidazo[1,2-a]pyridin-8-yl)-1H-indazole], the pIC50 is recorded as 7.5.

`CCc1cn2cnc(C(F)(F)F)c(-c3cc(Cl)c4[nH]ncc4c3)c2n1` [Example 64, 8-(7-Chloro-1H-indazol-5-yl)-2-ethyl-7-(trifluoromethyl)imidazo[1,2-c]pyrimidine]: the pIC50 is recorded as 9.3.

Turning to `COCc1nc2c(-c3cc(C)c4[nH]ncc4c3)c(-c3ccc(F)cc3)ccn2n1` [Example 47, 7-(4-Fluorophenyl)-2-(methoxymethyl)-8-(7-methyl-1H-indazol-5-yl)-[1,2,4]triazolo[1,5-a]pyridine], the pIC50 is 8.7.

As for `Cc1cc(-c2c(C(F)(F)F)ccn3nc(C(F)(F)F)nc23)cc2c1NC(=O)C2` [Example 22, 5-(2,7-Bis(trifluoromethyl)-[1,2,4]triazolo[1,5-a]pyridin-8-yl)-7-methylindolin-2-one], the pIC50 amounted to 9.1.

In the case of `Cc1cc(-c2c(C)ccn3cc(C(F)(F)F)nc23)cc2c1NC(=O)C2` [Example 11, 7-Methyl-5-[7-methyl-2-(trifluoromethyl)imidazo[1,2-a]pyridin-8-yl]indolin-2-one], the IC50 – broadly, the concentration that inhibits the measured activity by half – is 1 nM.

As for `Cc1cc(-c2c(C(C)C)ccn3nc(C(F)(F)F)nc23)cc2cn[nH]c12` [Example 49, 7-Isopropyl-8-(7-methyl-1H-indazol-5-yl)-2-(trifluoromethyl)-[1,2,4]triazolo[1,5-a]pyridine], the pIC50 worked out at 10.5.

Take `FC(F)(F)c1cn2cnc(C3CC3)c(-c3cc(Cl)c4[nH]ncc4c3)c2n1` [Example 77, 8-(7-Chloro-1H-indazol-5-yl)-7-cyclopropyl-2-(trifluoromethyl)imidazo[1,2-c]pyrimidine]: the negative logarithm of the IC50 (pIC50) worked out at 9.0.

For the molecule `Cc1cc(-c2c(C(F)(F)F)ncn3cc(C(F)(F)F)nc23)cc2cn[nH]c12` [Example 63, 8-(7-Methyl-1H-indazol-5-yl)-2,7-bis(trifluoromethyl)imidazo[1,2-c]pyrimidine], the pIC50 was 8.9.

With `Cc1cc(-c2c(C(F)(F)F)ccn3cc(C(F)(F)F)nc23)cc2cn[nH]c12` [Example 62, 5-(2,7-Bis(trifluoromethyl)imidazo[1,2-a]pyridin-8-yl)-7-methyl-1H-indazole], the pIC50 is given as 9.5.
